Laboratory results from patent publication EP0007319A1, “Indan-1-carboxylic acid derivatives,process for their preparation and pharmaceutical preparations containing these compounds” (priority 1978, dated 1980).

How the values were obtained:
Adjuvans-Arthritis = experiment: Adjuvant arthritis test (antiphlogistic activity); type: in vivo, Ratten des Stammes Lewis (LEW); conditions: Rattus norvegicus; dose giving 40 % healing of right hind paw; M. butyricum adjuvant; oral, daily over 4 days from day 11; Lewis rats; read-out: Adjuvans-Arthritis Test in mg/kg Tier (ED40)
Excerpt: Die antiphlogistische Wirksamkeit der eriindungsgemäßen Substanzen kann mit Hilfe des bekannten Adjuvans-Arthritis-Testes ermittelt werden, der wie folgt durchgeführt wird:
Es werden weibliche und männliche Ratten des Stammes Lewis (LEW) in der Gewichtsspanne zwischen 110 - 190 g verwendet. Die Tiere erhalten Trinkwasser und Altromin-Preßfutter ad libitum.
Für jede Dosisgruppe werden 10 Ratten eingesetzt .
Mycobacterium butyricum der Firma Difko, Detroit, wird als Reizmittel verwandt. Eine Suspension von 0,5 mg M. butyricum in 0,1 ml dünnflüssigem Paraffin. (DAB 7) wird in die rechte Hinterpfote subplantar injiziert.
Die Testsubstanzen werden vom 11. Versuchstag an täglich über 4 Tage oral gegeben. Die Substanzen werden als klare wässrige Lösung oder als Kristallsuspension unter Zusatz von Myrj 53 (85 mg.%) in isotonischer Natriumchlorid-Lösung verabreicht.
Die Ratten werden in bezug auf ihr Köpergewicht möglichst gleichmäßig in verschiedene Gruppen eingeteilt. Nach plethysmographischej Volumenmessung der rechten Hinterpfote wird in diese subplantar 0,1 ml Adjuvans injiziert. Die rechten Hinterpfoten werden vom 14. Versuchstag bis zum Versuchsende gemessen. Die Versuchsdauer beträgt 3 Wochen.
Bestimmt wird die Dosis an Testsubstanz, bei der eine 40 %ige Abheilung beobachtet wird (=ED40).

Magen = experiment: Ulcer test (gastric ulceration); type: in vivo, Wistar-Eatten (SPF)
Excerpt: Eine häufige Komplikation bei der Therapie mit nichtsteroidalen Entzündungshemmern stellt das Auftreten von Magenulcerationen dar. Diese Nebenwirkung kann im Tierversuch nachgewiesen werden, wobei als Dosis die Menge Testsubstanz verwendet wird, bei der im Adjuvans-Arthritis Test eine 40 %ige Abheilung beobachtet wird. Der Ulkus-Test wird wie folgt durchgeführt.
Es werden männliche Wistar-Eatten (SPF) verwandt. Die Tiere liege in einer Gewichtsspanne von 130 + 10 g. 16 Stunden vor Versuchsbeginn werden die Tiere vom Futter abgesetzt; sie erhalten Wasser ad libitum.
Pro Dosis werden 5 Tiere eingesetzt. Die Substanzen werden einmal oral, in Natriumelorid gelöst' oder als Kristallsuspension unter Zusatz von 85 mg% Myrj 53_appliziert.
3 Stunden nach Substanzapplikation injiziert man 1 ml einer 3 %igen Lösung des Farbstoffs Diphenylreinblau intravenös und tötet das Tier. Der Magen wird reseziert und mikroskopisch auf Anzahl von Epithclläsionen und Ulcera, die durch Farbstoffanreichcrunsen hervortreten, untersucht.

[1] = single oral dose equal to the ED40 of the adjuvant arthritis test, male Wistar rats, fasted 16 h, stomach examined 3 h after application

| Compound | ED40 (Adjuvans-Arthritis) | Anzahl der Magenulzera bei gleicher Dosis (Magen; rat, in vivo, po) | Anzahl der Magenulzera bei gleicher Dosis (Magen; [1]) |
| --- | --- | --- | --- |
| CC(C)Cc1ccc(C(C)C(=O)O)cc1 (stereo not drawn) [Verbindung 1] | 100 mg/kg | 6,8 | – |
| CC(C(=O)O)c1ccc(C2CCCCC2)cc1 (stereo not drawn) [Verbindung 2, 2-(4-Cyclohexyl-phenyl)-propionsäure] | 40 mg/kg | 7,6 | – |
| O=C(O)C1CCc2cc(C3CCCCC3)ccc21 (stereo not drawn) [Verbindung 3, 5-Cyclohexyl-indan-1-carbonsäure] | 50 mg/kg | 8,3 | – |
| O=C(O)C1CCc2cc(C3CCCCC3)c(Cl)cc21 (stereo not drawn) [Verbindung 4, 6-Chlor-5-cyclohexyl-indan-1-carbonsäure] | 4 mg/kg | 7,8 | – |
| CC(C(=O)O)c1ccc(CC2CC2)cc1 (stereo not drawn) [Verbindung 5, 2-(4-Cyclopropylmethyl-phenyl)-propionsäure] | 90 mg/kg | – | 5,4 |
| CC(C(=O)O)c1ccc(CC2CCCC2)cc1 (stereo not drawn) [Verbindung 6, 2-(4-Cyclopentylmethyl-phenyl)-propionsäure] | 10 mg/kg | – | 0,6 |
| CC(C(=O)O)c1ccc(CC2CCCC2)c(Cl)c1 (stereo not drawn) [Verbindung 7, 2-(3-Chlor-4-cyclopentyl-methyl-phenyl)-propionsäure] | 3 mg/kg | – | 0,6 |
| O=C(O)C1CCc2cc(CC3CCCC3)c(Cl)cc21 (stereo not drawn) [Verbindung 8, 6-Chlor-5-cyclopentyl-methyl-indan-1-carbonsäure] | 30 mg/kg | – | 2,2 |
| O=C(O)C1CCc2cc(C=C3CCCC3)c(Cl)cc21 (stereo not drawn) [Verbindung 9, 6-Chlor-5-cyclopentyliden-methyl-indan-1-carbon-säure] | 40 mg/kg | – | 0,7 |
